According to patent US8343924B2, “Composition for improving brain function and method for improving brain function” (Calpis Co., Ltd., priority 2009, dated 2013):

Experiments:
[1] = tested on: scopolamine-induced amnesia; experiment: Y-shaped maze test, prophylactic activity against scopolamine-induced amnesia; format: in vivo; conditions: male ddY mice, scopolamine 1 mg/kg s.c. 30 min before test
Description: The effect in improving brain function of the composition of the present invention, or the peptide the peptide Pro-Val-Arg-Gly-Pro-Phe-Pro-Ile-Ile-Val (SEQ ID NO: 2) or the peptide Val-Arg-Gly-Pro-Phe-Pro-Ile-Ile-Val (SEQ ID NO: 1) may be confirmed using a system based on an evaluation system for therapeutic drugs against Alzheimer's disease, the system using a Y-shaped maze test, for example. Specifically, a muscarinic receptor antagonist, such as scopolamine, may be used on a rat or a mouse so as to cause a hypofunction of the cholinergic neurons. Then, either the rat or the mouse may be administered with a drug, which induces amnesia by causing brain dysfunction, by itself, or the composition of the present invention, the peptide Pro-Val-Arg-Gly-Pro-Phe-Pro-Ile-Ile-Val (SEQ ID NO: 2) or the peptide Val-Arg-Gly-Pro-Phe-Pro-Ile-Ile-Val (SEQ ID NO: 1) together with such a drug, or the rat or the mouse may be administered, prior to the administration of such a drug, with the composition of the present invention, the peptide Pro-Val-Arg-Gly-Pro-Phe-Pro-Ile-Ile-Val (SEQ ID NO: 2) or the peptide Val-Arg-Gly-Pro-Phe-Pro-Ile-Ile-Val (SEQ ID NO: 1). Then, the mouse or the rat may be subjected to a test using a Y-shaped maze so that the prophylactic actions against amnesia of the composition of the present invention may be confirmed by using the percentage of change in spontaneous alternation behavior to different arms and the total number of entries into the maze as indicators.
Male mice (n=15 to 30) of the ddY strain (approximately 7-week old) were used, and they took food and water ad lib. Test substances used were 3 nmol/kg weight (3 μg/kg weight) and 30 nmol/kg weight (30 μg/kg weight) of Pro-Val-Arg-Gly-Pro-Phe-Pro-Ile-Ile-Val (SEO ID NO: 2). The test substances were administered to the mice once orally 60 minutes before the execution of a Y-shaped maze test for evaluation of spontaneous alternation behavior. […] The sequence of the arms each of the mice entered was recorded. The number of entries by each of the mice for each of the arms during the measurement time was counted to be the total number of entries. […] The percentage of spontaneous alternation behavior was calculated by dividing the number of spontaneous alternation behavior by a number obtained by subtracting 2 from the total number of entries, and multiplying a resultant number by 100. […] The measured values were expressed in the form of mean±standard error for each group. A significant difference between the control group and the scopolamine control group was calculated using Student's t-test. Further, a significant difference between the scopolamine control group and the PVRGPFPIIV (SEQ ID NO: 2)-administered group was calculated using Dunnett's multiple comparison test after one-way analysis of variance. […]

human T2R receptor = conditions: functions as a bitter substance; cited from earlier work
[2] = Example 2, 3 nmol/kg weight (3 μg/kg) once orally 60 min before test

For “VRGPFPIIV (Synthetic functional peptide) [Val-Arg-Gly-Pro-Phe-Pro-Ile-Ile-Val]”, the “prophylactic activity against amnesia (percentage of spontaneous alternation behavior)” value [1, 2] was “had a prophylactic activity against amnesia”.

In the case of “PVRGPFPIIV (Synthetic functional peptide) [Pro-Val-Arg-Gly-Pro-Phe-Pro-Ile-Ile-Val]”, the “prophylactic activity against amnesia (percentage of spontaneous alternation behavior)” value ([1]; Example 1, 3 nmol/kg weight to 30 nmol/kg weight (3 μg/kg to 30 μg/kg) once orally 60 min before test) is listed as “had a prophylactic activity against amnesia”, the “prophylactic activity against amnesia (percentage of spontaneous alternation behavior)” value [1, 2] is listed as “had a prophylactic activity against amnesia” and the “binding to human T2R receptor (receptor for bitter substances)” value (human T2R receptor) is listed as “binds to a human T2R receptor”.

With “RGPFPIIV (Synthetic comparative example peptide) [Arg-Gly-Pro-Phe-Pro-Ile-Ile-Val]” the “prophylactic activity against amnesia (percentage of spontaneous alternation behavior)” value [1, 2] was “did not show any activity”.
